Our source for the IC50 values is patent US12435058B2, “KIF18A inhibitors” (AMGEN INC., priority 2019, dated 2025).

For the experiment, the target named is T1, Recombinant human KIF18A (1-467 His-tagged) protein (Homo sapiens, UniProt Q8NI77).
T1 construct: Recombinant human KIF18A (1-467 His-tagged) protein; His; made in house
The experiment can be described thus: KIF18A Enzyme Assay (microtubule-stimulated ATPase activity, ADP-Glo). In kind it is biochemical. Particulars: KIF18A protein 30 nM, ATP 75 μM (at Km), 30 μg/mL pig microtubules, ADP-Glo luminescence. The text has this:
For compounds in Table A, the following assay conditions were employed:
KIF18A Enzyme Assay: Microtubule-stimulated ATPase activity assay is used to measure KIF18A enzyme activity after treatment with compound. Compounds were 2-fold serially diluted in DMSO (Sigma Inc) over 22-point concentration range. Recombinant human KIF18A (1-467 His-tagged) protein was expressed using a baculovirus system and purified by affinity chromatography by Amgen Inc. Concentrations of KIF18A protein, microtubules (MT), and ATP in the reaction were optimized for standardized homogenous enzyme assay using ADP-Glom Kinase/ATPase Assay Kit (Promega Inc). The assay measures ADP formed from the ATPase reaction. […] Read luminescence using EnVision microplate reader with ultra-luminescence module (Perkin Elmer Inc). Concentration-response curve-fitting and IC50 determination was performed using Genedata Screener Software (Standard 15.0.1, Genedata Inc) with a four-parameter logistic regression fit model.

SMILES strings stand for the structures.

T1 sequence (Q8NI77 1-467): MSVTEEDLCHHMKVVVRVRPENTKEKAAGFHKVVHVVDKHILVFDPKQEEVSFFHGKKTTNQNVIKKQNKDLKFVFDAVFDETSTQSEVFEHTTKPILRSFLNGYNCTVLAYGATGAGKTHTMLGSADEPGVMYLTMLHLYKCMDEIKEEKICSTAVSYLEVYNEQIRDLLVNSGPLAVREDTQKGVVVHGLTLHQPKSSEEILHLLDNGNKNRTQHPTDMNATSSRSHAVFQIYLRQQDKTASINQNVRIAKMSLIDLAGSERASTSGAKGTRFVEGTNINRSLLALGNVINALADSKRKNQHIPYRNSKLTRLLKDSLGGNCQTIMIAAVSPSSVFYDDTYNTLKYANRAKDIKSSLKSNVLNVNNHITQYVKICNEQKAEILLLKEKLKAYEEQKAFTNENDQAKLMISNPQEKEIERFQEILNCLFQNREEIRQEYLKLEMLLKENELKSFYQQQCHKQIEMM
T1 sequence (P02550 whole entry partner): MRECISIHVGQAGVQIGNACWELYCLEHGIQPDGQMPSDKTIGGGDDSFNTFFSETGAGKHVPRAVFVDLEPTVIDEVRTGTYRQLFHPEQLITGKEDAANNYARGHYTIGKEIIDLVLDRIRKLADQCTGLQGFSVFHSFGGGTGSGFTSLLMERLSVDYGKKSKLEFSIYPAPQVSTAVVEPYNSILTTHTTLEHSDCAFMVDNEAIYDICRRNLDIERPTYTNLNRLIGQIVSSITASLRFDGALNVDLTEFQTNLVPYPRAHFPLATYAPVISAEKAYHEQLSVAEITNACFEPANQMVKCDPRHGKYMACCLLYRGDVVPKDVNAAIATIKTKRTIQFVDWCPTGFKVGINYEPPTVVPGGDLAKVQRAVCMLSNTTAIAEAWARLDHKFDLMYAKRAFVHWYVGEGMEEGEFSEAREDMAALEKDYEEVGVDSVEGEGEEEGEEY
T1 sequence (P02554 whole entry partner): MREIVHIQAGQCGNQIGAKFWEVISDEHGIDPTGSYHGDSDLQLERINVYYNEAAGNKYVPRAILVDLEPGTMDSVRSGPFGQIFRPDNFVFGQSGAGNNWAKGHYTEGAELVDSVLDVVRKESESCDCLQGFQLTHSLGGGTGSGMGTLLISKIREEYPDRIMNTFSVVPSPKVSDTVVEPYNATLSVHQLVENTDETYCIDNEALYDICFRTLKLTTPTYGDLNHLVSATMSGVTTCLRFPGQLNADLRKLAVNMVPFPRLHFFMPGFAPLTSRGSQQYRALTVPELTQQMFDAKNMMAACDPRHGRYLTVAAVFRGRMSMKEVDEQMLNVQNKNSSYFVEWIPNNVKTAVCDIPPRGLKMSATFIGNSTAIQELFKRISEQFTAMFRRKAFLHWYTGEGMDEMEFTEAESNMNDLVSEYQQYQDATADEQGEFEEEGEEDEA

For the molecule `CC(C)(CO)Nc1cnc(C(=O)Nc2cccc(S(=O)(=O)[C@H]3CCC(F)(F)C3)c2)c(N2CCC3(CC2)CC3)n1` (single isomer, unassigned) [Example 102-1], the IC50 (commonly the point on the concentration scale where inhibition reaches its midpoint) was 0.067 µM. The figure for `CC(C)(CO)Nc1cnc(C(=O)Nc2cccc(S(=O)(=O)[C@@H]3CCC(F)(F)C3)c2)c(N2CCC3(CC2)CC3)n1` (single isomer, unassigned) [Example 102-2] is 0.111 µM; for `CC(C)(C)NS(=O)(=O)c1cccc(NC(=O)c2ncc([C@@](C)(O)C(F)(F)F)nc2N2CCC3(CC2)CC3)c1` (single isomer, unassigned) [Example 105-1] it is 0.174 µM. Consider `CC(C)(C)NS(=O)(=O)c1cccc(NC(=O)c2ncc([C@](C)(O)C(F)(F)F)nc2N2CCC3(CC2)CC3)c1` (single isomer, unassigned) [Example 105-2], for which the IC50 is 0.356 µM. Take `CC(C)(C)NS(=O)(=O)c1cccc(NC(=O)c2ncc(NC(C)(C)CO)nc2N2CCC3(CC2)CC3)c1` [Example 100, N-(3-(N-(tert-Butyl)sulfamoyl)phenyl)-5-((1-hydroxy-2-methylpropan-2-yl)amino)-3-(6-azaspiro[2.5]octan-6-yl)pyrazine-2-carboxamide]: the IC50 is 0.082 µM.

In the case of `CC1CCN(c2nc(NC(C)(C)CO)cnc2C(=O)Nc2cccc(S(=O)(=O)NC(C)(C)C)c2)CC1` [Example 100-1, N-(3-(N-(tert-butyl)sulfamoyl)phenyl)-5-((1-hydroxy-2-methylpropan-2-yl)amino)-3-(4-methylpiperidin-1-yl)pyrazine-2-carboxamide], the IC50 turned out to be 0.177 µM. To `CC(C)(C)NS(=O)(=O)c1cccc(NC(=O)c2ncc(NC(C)(C)CO)nc2N2CCC(F)(F)CC2)c1` [Example 100-2, N-(3-(N-(tert-butyl)sulfamoyl)phenyl)-3-(4,4-difluoropiperidin-1-yl)-5-((1-hydroxy-2-methylpropan-2-yl)amino)pyrazine-2-carboxamide] belongs 0.342 µM; to `CC(C)(C)NS(=O)(=O)c1cccc(NC(=O)c2ncc(NC(C)(C)CO)nc2N2CCC(C(F)(F)F)CC2)c1` [Example 100-3, N-(3-(N-(tert-butyl)sulfamoyl)phenyl)-5-((1-hydroxy-2-methylpropan-2-yl)amino)-3-(4-(trifluoromethyl)piperidin-1-yl)pyrazine-2-carboxamide], 0.455 µM. The figure for `CCC1CCN(c2nc(NC(C)(C)CO)cnc2C(=O)Nc2cccc(S(=O)(=O)NC(C)(C)C)c2)CC1` [Example 100-4, N-(3-(N-(tert-butyl)sulfamoyl)phenyl)-3-(4-ethylpiperidin-1-yl)-5-((1-hydroxy-2-methylpropan-2-yl)amino)pyrazine-2-carboxamide] is 0.133 µM. As to `CC1(C)CCN(c2nc(NC(C)(C)CO)cnc2C(=O)Nc2cccc(S(=O)(=O)NC(C)(C)C)c2)CC1` [Example 100-5, N-(3-(N-(tert-butyl)sulfamoyl)phenyl)-3-(4,4-dimethylpiperidin-1-yl)-5-((1-hydroxy-2-methylpropan-2-yl)amino)pyrazine-2-carboxamide], the IC50 stood at 0.19 µM. To `CC(C)C1CCN(c2nc(NC(C)(C)CO)cnc2C(=O)Nc2cccc(S(=O)(=O)NC(C)(C)C)c2)CC1` [Example 100-6, N-(3-(N-(tert-butyl)sulfamoyl)phenyl)-5-((1-hydroxy-2-methylpropan-2-yl)amino)-3-(4-isopropylpiperidin-1-yl)pyrazine-2-carboxamide] belongs 0.319 µM. Regarding `CC(C)(C)NS(=O)(=O)c1cccc(NC(=O)c2ncc(NC(C)(C)CO)nc2N2CCC(C(C)(C)C)CC2)c1` [Example 100-7, 3-(4-(tert-butyl)piperidin-1-yl)-N-(3-(N-(tert-butyl)sulfamoyl)phenyl)-5-((1-hydroxy-2-methylpropan-2-yl)amino)pyrazine-2-carboxamide], the IC50 came out at 0.788 µM.
